# Results: BindingDB's records for doi:10.1016/j.bmc.2015.10.001 (Seoul National University, 2015)
# Molecular target: Transient receptor potential cation channel subfamily V member 1 (Homo sapiens, UniProt Q8NER1)
# Assay: Antagonist activity at human TRPV1 heterologously expressed in CHO cells assessed as inhibition of capsaicin-induced activation by FLIPR assay
# Chain of Transient receptor potential cation channel subfamily V member 1 (Q8NER1 whole entry): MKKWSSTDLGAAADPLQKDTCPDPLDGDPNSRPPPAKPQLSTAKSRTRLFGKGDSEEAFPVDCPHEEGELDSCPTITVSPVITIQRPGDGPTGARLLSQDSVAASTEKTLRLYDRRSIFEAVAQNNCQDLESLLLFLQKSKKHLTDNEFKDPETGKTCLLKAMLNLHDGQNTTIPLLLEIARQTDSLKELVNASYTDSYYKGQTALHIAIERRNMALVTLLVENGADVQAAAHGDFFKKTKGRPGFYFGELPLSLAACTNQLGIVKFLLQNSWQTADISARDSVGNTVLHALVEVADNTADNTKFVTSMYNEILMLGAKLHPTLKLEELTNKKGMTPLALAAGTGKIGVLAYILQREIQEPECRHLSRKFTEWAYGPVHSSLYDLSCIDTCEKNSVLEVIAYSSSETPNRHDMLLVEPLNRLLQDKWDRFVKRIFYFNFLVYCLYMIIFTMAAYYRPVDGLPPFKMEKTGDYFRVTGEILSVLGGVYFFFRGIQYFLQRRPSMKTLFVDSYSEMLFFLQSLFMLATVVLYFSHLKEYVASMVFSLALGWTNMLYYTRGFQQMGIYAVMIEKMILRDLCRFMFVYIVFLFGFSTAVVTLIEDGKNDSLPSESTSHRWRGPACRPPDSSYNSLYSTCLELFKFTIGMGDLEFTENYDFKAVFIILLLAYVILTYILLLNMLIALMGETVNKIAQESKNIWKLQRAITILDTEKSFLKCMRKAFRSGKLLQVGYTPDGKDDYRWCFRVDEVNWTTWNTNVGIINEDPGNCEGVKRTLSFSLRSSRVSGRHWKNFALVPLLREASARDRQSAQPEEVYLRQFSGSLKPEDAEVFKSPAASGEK
structure (smiles),measurement,value
CCCCCOc1cc(C(F)(F)F)ccc1CNC(=O)C(C)c1ccc(NS(C)(=O)=O)c(F)c1 (stereo unspecified),Ki,0.7 nM
